Results from US20020035738A1, “Plant protection method” (priority 1996, published 2002).

Experiments:
[1] = system: plant defensin gene expression (PDF1.2); test: Induction of plant defensins in Arabidopsis leaves upon chemical treatments (RNA gel blot, ELISA); type: in vivo
[2] = system: pPDF1.2-GUS-tNOS reporter gene; test: β-glucuronidase activity in four-week-old pPDF1.2-GUS-tNOS Arabidopsis plants upon chemical treatment; type: in vivo
[3] = system: pBg12-GUS-tNOS (β-1.3-glucanase PR-2 type gene promoter); test: β-glucuronidase activity in pBg12-GUS-tNOS Arabidopsis plants upon chemical treatment; type: in vivo
Botrvtis cinerea = settings: cited from earlier work
Alterniaria alternata = settings: cited from earlier work
A. brassicicola = type: cell-based, Alternaria brassicicola; settings: FIG. 3D
[4] = system: pPDF1.2-GUS-tNOS reporter gene; test: β-glucuronidase activity in pPDF1.2-GUS-tNOS tobacco plants upon chemical treatment; type: in vivo, tobacco (cv. Xanthi-nc); settings: 8-week-old tobacco, treated leaves 48 h after treatment; SA S mM, MeJA 50 μM, paraquat 25 μgM
tobacco PR-1 gene = test: RNA gel blot analysis of tobacco PR-1 gene activation; type: in vivo; settings: tobacco plants treated in the same way; not shown
[5] = system: pPDF1.2-GUS-tNOS transgene; test: β-glucuronidase activity in seedlings of pPDF1.2-GUS-tNOS Arabidopsis lines germinated on jasmonic acid; type: in vivo, Arabidopsis thaliana ecotype C24; settings: 10 μM jasmonic acid
From the text: The β-glucuronidase activity was normalized to the total protein content in each sample, as determined by the method of Bradford (1976) using bovine serum albumin as a […].

[6] = […], SA 5 mM, INA 1 mg/mL, paraquat 25 μM, rose bengal 20 mM, methyl jasmonate 45 μM in 0.1% ethanol, ethylene 20 ppm
[7] = treated leaves, 48 hours, JA 500 μM, MeJA 50 μM, SA 5 mM, INA 1 mg/ml, BTH 300 μM, paraquat 25 μM, ethylene 25 ppm
[8] = treated leaves, 48 h, JA 500 μM, MeJA 50 μM, SA 5 mM, INA 1 mg/ml, BTH 300 μM, paraquat 25 μM, ethylene 25 ppm

Molecule: CC/C=C\CC1C(=O)CCC1CC(=O)OC (stereo not drawn) [methyl jasmonate]
- plant defensin gene expression (RNA blot analysis, ELISA) [1, 6]: significantly increased
- PDF1.2 accumulation ([1]; sterile plants grown on an agar medium, ethylene alone 25 ppm, results not shown): still induced PDF1.2 accumulation
- β-glucuronidase activity, single and combined treatments (synergy) ([2]; methyl jasmonate 0.5 μM, ethylene 25 ppm, ethephon 333 μM, FIG. 19): did not cause increased
- induction of the pPDF1.2-GUS-tNOS reporter gene (β-glucuronidase activity) [2, 7]: induced
- β-glucuronidase activity in pBg12-GUS-tNOS plants [3, 8]: neither JA, MeJA, ethylene nor paraquat had any effect

Molecule: CSC(=O)c1cccc2nnsc12 [BTH, 1,2,3-benzothiadiazole-7-carbothioic acid S-methylester]
- induction of the pPDF1.2-GUS-tNOS reporter gene (β-glucuronidase activity) [2, 7]: without effect
- β-glucuronidase activity in pBg12-GUS-tNOS plants [3, 8]: markedly increased
- protection of tobacco plants against infection by Botrytis cinerea (Botrvtis cinerea): failed to protect
- protection of tobacco plants against infection by Alternaria alternata (Alterniaria alternata): failed to protect

Molecule: Rs-AFP1: a known radish plant defensin (QKLCERPSGTWSGVCGNNNACKNQCINLEKARHGSCNYVFPAHKCICYFPC; UniProt P69241 30-80, looked up)
- character of the growth inhibition (hyphal morphology) (A. brassicicola): hyphal hyperbranching and tip swelling

Molecule: O=C(O)c1cc(Cl)nc(Cl)c1 [INA, 2,6-dichloroisonicotinic acid]
- plant defensin gene expression (RNA blot analysis, ELISA) [1, 6]: no induction
- induction of the pPDF1.2-GUS-tNOS reporter gene (β-glucuronidase activity) [2, 7]: without effect
- β-glucuronidase activity in pBg12-GUS-tNOS plants [3, 8]: markedly increased

Molecule: C=C [ethylene]
- PDF1.2 accumulation ([1]; in vivo): no induced PDF1.2 accumulation
- plant defensin gene expression (RNA blot analysis, ELISA) ([1]; in vivo): significantly increased
- induction of the pPDF1.2-GUS-tNOS reporter gene (β-glucuronidase activity) ([2]; in vivo): without effect
- β-glucuronidase activity, single and combined treatments (synergy) ([2]; in vivo): did not cause increased
- β-glucuronidase activity in pBg12-GUS-tNOS plants ([3]; in vivo): neither JA, MeJA, ethylene nor paraquat had any effect

Molecule: O=C(O)c1ccccc1O [salicylic acid]
- plant defensin gene expression (RNA blot analysis, ELISA) [1, 6]: no induction
- induction of the pPDF1.2-GUS-tNOS reporter gene (β-glucuronidase activity) [2, 7]: without effect
- β-glucuronidase activity in pBg12-GUS-tNOS plants [3, 8]: markedly increased
- increase in β-glucuronidase activity [4]: 2 fold
- activation of the tobacco PR-1 gene (RNA gel blot) (tobacco PR-1 gene): induced only by salicylic acid

Molecule: O=C([O-])c1c(Cl)c(Cl)c(Cl)c(Cl)c1-c1c2cc(I)c(=O)c(I)c-2oc2c(I)c([O-])c(I)cc12.[Na+].[Na+] [rose bengal]
- plant defensin gene expression (RNA blot analysis, ELISA) [1, 6]: strongly induced

Molecule: CC/C=C\C[C@H]1C(=O)CC[C@@H]1CC(=O)O [jasmonic acid]
- increase of β-glucuronidase activity in jasmonate treated versus untreated seedlings ([5]; all six lines tested): 9 to 25 fold
- β-glucuronidase activity, JA-treated ([5]; transgenic line 3, 10-day-old seedlings): 2895 pmoles 4-methylumbelliferone r
- β-glucuronidase activity, JA-treated ([5]; transgenic line 4, 10-day-old seedlings): 978 pmoles 4-methylumbelliferone r
- β-glucuronidase activity, JA-treated ([5]; transgenic line 5, 10-day-old seedlings): 2676 pmoles 4-methylumbelliferone r
- β-glucuronidase activity, JA-treated ([5]; transgenic line 6, 10-day-old seedlings): 2166 pmoles 4-methylumbelliferone r
- β-glucuronidase activity, JA-treated ([5]; transgenic line 7, 10-day-old seedlings): 203 pmoles 4-methylumbelliferone r
- β-glucuronidase activity, JA-treated ([5]; transgenic line 19, 10-day-old seedlings): 202 pmoles 4-methylumbelliferone r
- induction of the pPDF1.2-GUS-tNOS reporter gene (β-glucuronidase activity) [2, 7]: induced
- β-glucuronidase activity in pBg12-GUS-tNOS plants [3, 8]: neither JA, MeJA, ethylene nor paraquat had any effect

Molecule: C[n+]1ccc(-c2cc[n+](C)cc2)cc1 [paraquat]
- plant defensin gene expression (RNA blot analysis, ELISA) [1, 6]: strongly induced
- induction of the pPDF1.2-GUS-tNOS reporter gene (β-glucuronidase activity) [2, 7]: induced
- β-glucuronidase activity in pBg12-GUS-tNOS plants [3, 8]: neither JA, MeJA, ethylene nor paraquat had any effect
